Counter-ions that a name gives are not always drawn. Like-named read-outs stand apart in the source and are kept apart here.
Biological target: T1, human mAChR M4 (Homo sapiens, UniProt P08173)
T1 sequence (P08173 1-479): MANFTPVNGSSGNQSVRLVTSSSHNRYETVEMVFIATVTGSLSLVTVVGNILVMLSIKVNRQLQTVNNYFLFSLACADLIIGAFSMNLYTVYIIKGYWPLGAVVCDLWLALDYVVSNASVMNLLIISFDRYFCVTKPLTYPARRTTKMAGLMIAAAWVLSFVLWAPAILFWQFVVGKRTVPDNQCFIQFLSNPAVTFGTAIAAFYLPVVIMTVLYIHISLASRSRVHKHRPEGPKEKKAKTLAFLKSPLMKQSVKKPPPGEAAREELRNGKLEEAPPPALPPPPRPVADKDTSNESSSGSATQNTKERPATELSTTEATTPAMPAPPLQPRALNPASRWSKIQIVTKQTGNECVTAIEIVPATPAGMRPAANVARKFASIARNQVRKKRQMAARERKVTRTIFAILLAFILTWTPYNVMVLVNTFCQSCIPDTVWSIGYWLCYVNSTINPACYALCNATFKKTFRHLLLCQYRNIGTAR
Experiment: mAChR M4 cell-based functional assay (calcium flux), human M4
Details: for EC50: Human M4 EC50 (nM), calcium flux, PAM activity with EC20 acetylcholine

[1] = Table 10, % ACh maximum at 30 μM

| SMILES | EC50 (Table 10) | Emax [1] | Emax |
| --- | --- | --- | --- |
| Cc1nnc2sc3c(N4CC(NC(=O)c5ccncc5)C4)ncnc3c2c1C [Compound 97, N-[1-(3,4-dimethylpyrimido [4′,5′:4,5]thieno[2,3-c]pyridazin-8-yl)azetidin-3-yl]pyridine-4-carboxamide hydrochloride] | 1130 nM | 51.7% | – |
| Cc1nnc2sc3c(N4CC(C)(N)C4)ncnc3c2c1C [Compound 98, 1-(3,4-dimethylpyrimido [4′,5′:4,5]thieno[2,3-c]pyridazin-8-yl)-3-methyl-azetidin-3-amine dihydrochloride] | 2390 nM | 50.1% | – |
| Cc1nnc2sc3c(N4CC[C@@H](N)C4)ncnc3c2c1C [Compound 99, (3R)-1-(3,4-dimethylpyrimido [4′,5′:4,5]thieno[2,3-c]pyridazin-8-yl)pyrrolidin-3-amine dihydrochloride] | 1040 nM | 54% | – |
| Cc1nnc2sc3c(NC(C)c4ccc(C(C)(C)O)cc4)ncnc3c2c1C (stereo not drawn) [Compound 100, 2-[4-[1-[(3,4-dimethylpyrimido [4′,5′:4,5]thieno[2,3-c]pyridazin-8-yl)amino]ethyl]phenyl]propan-2-ol] | 7720 nM | 52.2% | – |
| Cc1nnc2sc3c(NC(C)c4ccc(C5(O)CCC5)cc4)ncnc3c2c1C (stereo not drawn) [Compound 101, 1-[4-[1-[(3,4-dimethylpyrimido [4′,5′:4,5]thieno[2,3-c]pyridazin-8-yl)amino]ethyl]phenyl]cyclobutanol] | 839 nM | 59.2% | – |
| Cc1nnc2sc3c(NCc4cccc(C5(O)CCC5)c4)ncnc3c2c1C [Compound 102, 1-[3-[[(3,4-dimethylpyrimido [4′,5′:4,5]thieno[2,3-c]pyridazin-8-yl)amino]methyl]phenyl] cyclobutanol] | 135 nM | 53.3% | – |
| Cc1nnc2sc3c(N4CC(O)(C5CC5)C4)ncnc3c2c1C [Compound 103, 3-cyclopropyl-1-(3,4-dimethylpyrimido [4′,5′:4,5]thieno[2,3-c]pyridazin-8-yl)azetidin-3-ol] | 122 nM | 80.3% | – |
| Cc1nnc2sc3c(N4CC(C(N)=O)C4)ncnc3c2c1C [Compound 104, 1-(3,4-dimethylpyrimido [4′,5′:4,5]thieno[2,3-c]pyridazin-8-yl)azetidine-3-carboxamide] | 2100 nM | 52.9% | – |
| Cc1nnc2sc3c(N4CC5(CNC5)C4)ncnc3c2c1C [Compound 105, 8-(2,6-diazaspiro[3.3]heptan-2-yl)-3,4-dimethyl-pyrimido [4′,5′:4,5]thieno[2,3-c] pyridazine] | 627 nM | – | 55.6% |
| Cc1nnc2sc3c(NCc4ccc(C(C)(C)O)nc4)ncnc3c2c1C [Compound 106, 2-[5-[[(3,4-dimethylpyrimido [4′,5′:4,5]thieno[2,3-c]pyridazin-8-yl)amino]methyl]-2-pyridyl]propan-2-ol] | – | 54.1% | – |
| Cc1nnc2sc3c(NCc4ccc(C(C)(C)O)cc4F)ncnc3c2c1C [Compound 107, 2-[4-[[(3,4-dimethylpyrimido [4′,5′:4,5]thieno[2,3-c]pyridazin-8-yl)amino]methyl]-3-fluoro-phenyl]propan-2-ol] | 207 nM | 78.8% | – |
| Cc1nnc2sc3c(NCc4ccc(CN5CCOCC5)cc4)ncnc3c2c1C [Compound 108, 3,4-dimethyl-N-[[4-(morpholinomethyl)phenyl]methyl]pyrimido[4′,5′:4,5] thieno[2,3-c] pyridazin-8-amine hydrochloride] | 148 nM | – | 76.8% |
| Cc1nnc2sc3c(NCc4ccc(-c5ccccn5)cc4)ncnc3c2c1C [Compound 109, 3,4-dimethyl-N-[[4-(2-pyridyl)phenyl]methyl] pyrimido[4′,5′:4,5]thieno [2,3-c]pyridazin-8-amine hydrochloride] | 748 nM | 79.2% | – |
| Cc1nnc2sc3c(NCc4ccc(Oc5ccccn5)cc4)ncnc3c2c1C [Compound 110, 3,4-dimethyl-N-[[4-(2-pyridyloxy)phenyl]methyl] pyrimido[4′,5′:4,5]thieno [2,3-c]pyridazin-8-amine hydrochloride] | 971 nM | 59.3% | – |
